Data reported in patent US9156790B2, “Anticancer P21-activated kinase inhibitors” (Ohio State Innovation Foundation, priority 2013, dated 2015).
Like-named read-outs stand apart in the source and are kept apart here.

How the values were obtained:
[1] = target: CDK1/cyclinB (Homo sapiens, UniProt P06493); experiment: Kinase profiling panel: CDK1/cyclinB; type: biochemical; conditions: 5 μM compound; average of triplicate
Method: (§1) To further probe the selectivity of the compounds 4 and 15, they were subjected for kinase profiling service for screening against a panel of other kinases selected based on the kinase tree at 5 μM concentration, at or above the IC50 for the two compounds versus PAK in both in vitro and cell-based assays. […] PAK1 was not available for testing using this system thus it was not possible to compare directly in this assay system.

[2] = target: PKCα (Homo sapiens, UniProt P17252); experiment: Kinase profiling panel: PKCα; type: biochemical; conditions: 5 μM compound; average of triplicate
Method: as §1

[3] = test system: BCPAP cells transfected with constitutively activated PAK1 cDNA; experiment: Migration rescue experiment with constitutively activated PAK1; type: cell-based, Human; conditions: 1 μM compound, 24 hours, P<0.05
Method: Myc-tagged constitutively activated (CA) PAK1 cDNAs was the generous gift of Dr. Jonathan Chernoff (Fox Chase Cancer Center, Philadelphia, Pa.). Sells et al., J Cell Biol 145:837-849 (1999). pRC/CMV and pcDNA3.1(+) vector were purchased from Life Technologies. BCPAP cells were grown in RPMI containing 10% FBS until 40-50% confluent. They were transfected with CAPAK1 cDNA or a vector control, washed with PBS, trypsinized with 0.05% Trypsin-EDTA 1× (Gibco) for 5-10 min, collected with 10% FBS RPMI, and centrifuged at 300 g for 5 min. Cells were resuspended with 0% FBS RPMI and counted using Countess™ (Invitrogen). Then a volume of 1×10^5 cells suspended in 300 μl of 0% FBS RPMI was placed into Boyden chamber inserts (8 μm pore). The inserts were placed into wells of a 24 well plate filled with 400 μl of 0% FBS RPMI. The plate was incubated at 37° C. 5% CO2 for 1 hour. Then 30 μl (1 μM) of either compound 4 or 15 was added to the inserts and then incubated again for 1 hour. The inserts were transferred into different wells filled with 400 μl of 10% FBS RPMI. After incubation for 24 hours, the cells on either side of the insert membrane were fixed and quantified as above. Experiments were performed in triplicate on three occasions.
Because the compounds are multikinase inhibitors, we next sought to determine if PAK1 inhibition was responsible for some of the biological effects of the compounds. […]

[4] = target: Ret (Homo sapiens, UniProt P07949); experiment: Kinase profiling panel: Ret; type: biochemical; conditions: 5 μM compound; average of triplicate
Method: as §1

[5] = target: PKBα (Homo sapiens, UniProt P31749); experiment: Kinase profiling panel: PKBα; type: biochemical; conditions: read-out: % activity vs. DMSO, PKBα
Method: as §1

[6] = target: Met (Homo sapiens, UniProt P08581); experiment: Kinase profiling panel: Met; type: biochemical; conditions: 5 μM compound; average of triplicate
Method: as §1

[7] = target: PAK3 (Homo sapiens, UniProt O75914); experiment: Kinase profiling panel: PAK3; type: biochemical; conditions: 5 μM compound; average of triplicate
Method: as §1

[8] = target: FGFR2 (Homo sapiens, UniProt P21802); experiment: Kinase profiling panel: FGFR2; type: biochemical; conditions: 5 μM compound; average of triplicate
Method: as §1

[9] = test system: BCPAP cells; experiment: MTT cell viability assay, BCPAP; type: cell-based, Human; conditions: Homo sapiens, BCPAP, 72-hours of exposure, 1% FBS, mean±standard deviation (n=3), read-out: IC50 for reducing viability of BCPAP cells versus DMSO control
Source text: (§2) Human thyroid cancer BCPAP, TPC1, and FTC133 cell lines were the generous gifts of Drs. Rebecca Schweppe and Bryan Haugen (University of Colorado Denver) (Schweppe et al., The Journal of clinical endocrinology and metabolism 83:4331-4341 (2008)) with permission from the following originating laboratories: BCPAP—Dr. Fabien, Centre Hospitalier Lyon-Sud, France (Fabien et al., Cancer 73:2206-2212 (1994)); TPC1—Dr. Sato, Kanazawa University, Japan (Tanaka et al., Virology 161:62-411 (1987)); and FTC133—Dr. Goretzki, University of Leipzig, Germany (Goretzki et al., Recent Results Cancer Res 118:48-63 (1990)). The obtained cell lines were confirmed for identity by DNA fingerprinting. BCPAP was grown in RPMI 1640 medium (Life Technologies Co., Carlsbad, Calif.) while FTC133 and TPC1 were grown in DMEM (Life Technologies Co.), both supplemented with 10% fetal bovine serum (FBS) and NEAA unless as noted for experiments.
(§3) The effect of OSU-03012 and its derivatives on cell viability was assessed by using the 3-(4,5-dimethylthiazol-2-yl)-2,5-diphenyl-2H-tetrazolium bromide (MTT) assay. Three replicates were performed in each individual experiment, and experiments were repeated at least three separate times. Cells were grown in 96-well plates for 24 hours and were exposed to various concentrations of drugs dissolved in DMSO (final concentration 0.1%) in RPMI 1640 or DMEM containing 1% FBS for 72 hours. 10 μL of 0.5 mg/ml MTT was added to each well and cells were incubated in CO2 at 37° C. for 2 hours. Supernatants were removed from the wells, the reduced MTT dye was solubilized in 100 μL of solution C (12 ml of 1N HCl in 300 mL of isopropanol), and absorbance at 570 nm was determined on a microplate reader.
(§4) We assessed the ability of the compounds to reduce cell viability in vitro by MTT assay after 72 hours of continuous exposure. Results are shown in Table 1 and are depicted as the IC50 vs. simultaneously performed DMSO control.
(§5) ^aThe reported IC50 values are concentrations at which BCPAP, FTC133 and TPC1 cell viability by MTT assays 50% of DMSO control after 72-hours of exposure. Data are presented as mean±standard deviation (n=3). PAK and PDK1 Selectivity In Vivo

[10] = test system: FTC133 cells; experiment: MTT cell viability assay, FTC133; type: cell-based, Human; conditions: Homo sapiens, FTC-133, 72-hours of exposure, 1% FBS, mean±standard deviation (n=3), read-out: IC50 for reducing viability of FTC133 cells versus DMSO control
Source text: as §2, §3, §4, §5

Ret, sequence (P07949 29-1114, species assumed): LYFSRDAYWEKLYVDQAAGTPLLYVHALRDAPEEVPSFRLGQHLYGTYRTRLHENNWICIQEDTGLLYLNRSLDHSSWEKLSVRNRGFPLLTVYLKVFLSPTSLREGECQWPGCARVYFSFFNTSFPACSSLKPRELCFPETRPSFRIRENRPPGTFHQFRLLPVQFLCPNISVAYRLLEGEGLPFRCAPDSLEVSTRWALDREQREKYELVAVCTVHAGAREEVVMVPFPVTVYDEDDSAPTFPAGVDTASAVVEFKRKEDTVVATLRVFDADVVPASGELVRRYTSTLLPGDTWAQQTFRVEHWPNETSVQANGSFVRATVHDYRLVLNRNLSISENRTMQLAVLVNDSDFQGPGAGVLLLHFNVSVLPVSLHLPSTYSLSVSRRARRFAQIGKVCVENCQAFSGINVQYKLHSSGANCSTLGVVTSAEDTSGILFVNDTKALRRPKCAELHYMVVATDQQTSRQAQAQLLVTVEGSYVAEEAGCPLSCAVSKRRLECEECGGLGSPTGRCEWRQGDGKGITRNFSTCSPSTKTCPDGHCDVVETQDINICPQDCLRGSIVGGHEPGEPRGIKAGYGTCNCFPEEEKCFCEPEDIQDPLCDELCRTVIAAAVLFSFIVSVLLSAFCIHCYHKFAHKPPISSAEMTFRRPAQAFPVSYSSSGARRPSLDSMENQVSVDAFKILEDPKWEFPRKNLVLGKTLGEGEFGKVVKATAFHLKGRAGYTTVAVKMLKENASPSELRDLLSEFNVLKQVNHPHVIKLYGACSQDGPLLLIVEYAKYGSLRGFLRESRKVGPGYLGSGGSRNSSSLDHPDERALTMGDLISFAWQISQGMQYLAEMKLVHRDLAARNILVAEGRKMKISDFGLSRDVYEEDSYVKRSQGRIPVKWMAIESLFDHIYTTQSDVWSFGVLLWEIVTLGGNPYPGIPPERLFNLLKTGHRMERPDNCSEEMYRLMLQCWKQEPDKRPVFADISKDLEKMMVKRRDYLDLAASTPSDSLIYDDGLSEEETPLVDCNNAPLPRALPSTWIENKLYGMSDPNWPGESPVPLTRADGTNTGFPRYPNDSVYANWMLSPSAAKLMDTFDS
PAK3, sequence (O75914 whole entry, species assumed): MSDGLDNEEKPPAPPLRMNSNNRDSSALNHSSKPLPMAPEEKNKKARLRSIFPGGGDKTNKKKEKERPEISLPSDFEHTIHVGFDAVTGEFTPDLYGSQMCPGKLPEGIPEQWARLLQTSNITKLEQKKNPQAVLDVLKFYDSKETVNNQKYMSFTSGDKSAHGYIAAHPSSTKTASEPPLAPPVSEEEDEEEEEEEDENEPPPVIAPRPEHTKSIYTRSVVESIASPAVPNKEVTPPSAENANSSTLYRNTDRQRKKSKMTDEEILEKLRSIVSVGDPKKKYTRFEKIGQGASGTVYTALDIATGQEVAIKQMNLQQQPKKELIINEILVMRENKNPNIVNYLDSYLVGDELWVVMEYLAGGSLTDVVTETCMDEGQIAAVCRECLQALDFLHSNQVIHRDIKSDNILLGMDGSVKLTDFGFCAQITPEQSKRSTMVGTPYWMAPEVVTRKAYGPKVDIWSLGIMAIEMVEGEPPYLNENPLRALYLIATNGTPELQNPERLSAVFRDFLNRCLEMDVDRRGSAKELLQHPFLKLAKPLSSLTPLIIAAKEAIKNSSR
FGFR2, sequence (P21802 22-821, species assumed): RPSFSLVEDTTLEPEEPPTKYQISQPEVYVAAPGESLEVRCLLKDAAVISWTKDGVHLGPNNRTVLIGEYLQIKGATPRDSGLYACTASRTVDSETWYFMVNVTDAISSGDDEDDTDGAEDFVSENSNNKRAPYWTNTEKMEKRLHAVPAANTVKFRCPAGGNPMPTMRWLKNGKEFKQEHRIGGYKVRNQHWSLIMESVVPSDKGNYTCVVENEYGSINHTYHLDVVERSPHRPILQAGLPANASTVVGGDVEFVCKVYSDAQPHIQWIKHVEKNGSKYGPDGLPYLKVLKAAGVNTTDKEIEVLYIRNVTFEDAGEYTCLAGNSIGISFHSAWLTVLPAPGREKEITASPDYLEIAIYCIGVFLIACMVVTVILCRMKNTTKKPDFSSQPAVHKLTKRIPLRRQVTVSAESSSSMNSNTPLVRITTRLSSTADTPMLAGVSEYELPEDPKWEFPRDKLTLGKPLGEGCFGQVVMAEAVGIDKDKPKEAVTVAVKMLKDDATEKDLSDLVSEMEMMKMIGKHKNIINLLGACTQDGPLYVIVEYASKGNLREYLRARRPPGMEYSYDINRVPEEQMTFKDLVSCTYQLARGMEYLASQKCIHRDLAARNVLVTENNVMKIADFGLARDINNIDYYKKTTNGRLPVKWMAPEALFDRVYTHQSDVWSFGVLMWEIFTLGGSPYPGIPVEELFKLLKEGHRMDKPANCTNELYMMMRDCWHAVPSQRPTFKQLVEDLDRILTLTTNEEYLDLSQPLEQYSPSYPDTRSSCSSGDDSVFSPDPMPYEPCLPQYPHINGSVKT
CDK1/cyclinB, sequence (P06493 whole entry, species assumed): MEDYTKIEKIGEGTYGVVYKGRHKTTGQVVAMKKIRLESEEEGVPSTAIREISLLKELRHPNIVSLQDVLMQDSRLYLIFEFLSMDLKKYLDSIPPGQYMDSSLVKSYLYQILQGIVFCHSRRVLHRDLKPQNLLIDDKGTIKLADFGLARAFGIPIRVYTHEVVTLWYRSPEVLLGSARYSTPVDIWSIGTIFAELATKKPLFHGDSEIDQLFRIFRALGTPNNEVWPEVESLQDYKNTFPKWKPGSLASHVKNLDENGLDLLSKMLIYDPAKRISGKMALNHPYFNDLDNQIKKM
CDK1/cyclinB, sequence (P14635 whole entry partner, species assumed): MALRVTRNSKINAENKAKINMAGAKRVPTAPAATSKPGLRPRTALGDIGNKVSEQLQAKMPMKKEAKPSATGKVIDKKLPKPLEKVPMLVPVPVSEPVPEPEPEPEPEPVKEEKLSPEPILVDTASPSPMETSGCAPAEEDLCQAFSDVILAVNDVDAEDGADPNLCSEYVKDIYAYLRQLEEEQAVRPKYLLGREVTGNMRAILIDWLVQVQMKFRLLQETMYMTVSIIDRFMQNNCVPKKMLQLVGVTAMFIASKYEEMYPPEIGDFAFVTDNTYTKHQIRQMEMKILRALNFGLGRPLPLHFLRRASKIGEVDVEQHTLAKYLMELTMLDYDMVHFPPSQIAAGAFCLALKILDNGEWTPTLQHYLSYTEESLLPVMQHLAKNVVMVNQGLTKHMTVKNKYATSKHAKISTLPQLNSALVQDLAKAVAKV
PKBα, sequence (P31749 whole entry, species assumed): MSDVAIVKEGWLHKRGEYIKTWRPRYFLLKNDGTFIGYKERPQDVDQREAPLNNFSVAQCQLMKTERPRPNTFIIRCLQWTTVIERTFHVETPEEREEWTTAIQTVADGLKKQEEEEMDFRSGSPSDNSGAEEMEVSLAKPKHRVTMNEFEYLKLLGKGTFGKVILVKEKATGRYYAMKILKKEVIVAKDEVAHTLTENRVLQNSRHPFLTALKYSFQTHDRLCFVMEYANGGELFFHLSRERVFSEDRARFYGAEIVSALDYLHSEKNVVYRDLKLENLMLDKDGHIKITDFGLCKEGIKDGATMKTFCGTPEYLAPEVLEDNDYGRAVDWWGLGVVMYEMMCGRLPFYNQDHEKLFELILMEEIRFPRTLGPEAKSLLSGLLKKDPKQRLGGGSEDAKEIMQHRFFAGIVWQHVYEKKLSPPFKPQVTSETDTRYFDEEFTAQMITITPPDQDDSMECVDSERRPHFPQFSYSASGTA

Row | Structure (SMILES) | % activity vs. DMSO, CDK1/cyclinB [1] | % activity vs. DMSO, PKCα [2] | Rescue of anti-migratory effect by constitutively activated PAK1 [3] | % activity vs. DMSO, Ret [4] | remaining activity at 5 µM ([5]; 5 μM compound, average of triplicate) | % activity vs. DMSO, Met [6] | % activity vs. DMSO, PAK3 [7] | % activity vs. DMSO, FGFR2 [8] | IC50 [9] | IC50 [10] | remaining activity at 5 µM [5]
1 | NCCC(=O)Nc1ccc(-n2nc(C(F)(F)F)cc2-c2ccc3ccc4ccccc4c3c2)cc1 [Compound 4, 3-amino-N-(4-(5-(phenanthren-3-yl)-3-(trifluoromethyl)-1H-pyrazol-1-yl)phenyl)-propanamide] | 83% | 92% | rescued | 97% | 103% | 89% | 211% | 92% | 2070 ± 60 nM | 2680 ± 2080 nM | 
2 | CC(C)NC(=O)c1cc(-c2ccc3ccc4ccccc4c3c2)n(-c2ccc(NC(=O)CN)cc2)n1 [Compound 15, 1-(4-(2-Aminoacetamido)phenyl)-N-isopropyl-5-(phenanthren-3-yl)-1H-pyrazole-3-carboxamide] | 95% | 92% | rescued | 76% |  | 77% | 99% | 99% | 1490 ± 680 nM | 3370 ± 3310 nM | 99%
